Test results published in patent US9428477B2, “Trans-2-decenoic acid derivative and drug containing same” (NIPPON ZOKI PHARMACEUTICAL CO., LTD., priority 2012, dated 2016).

Assays:
[1] = test system: rats with paclitaxel-induced peripheral nerve disorder; assay: Rat peripheral nerve disorder induced by paclitaxel, von Frey test; assay type: in vivo; details: ip, test drug intraperitoneally, single dose, higher of values 1 and 5 hours after administration, mechanical stimulus of right hind limb, normal threshold 15, read-out: Recovery Rate of 50% Reaction Threshold Value
Procedure: The effects of the compounds of the present invention were evaluated for a peripheral nerve disorder which is a side effect induced by the administration of an anti-cancer agent paclitaxel, such as hyperesthesia including allodynia induced by mechanical stimuli, which is a severe pain induced by such tactile stimuli which usually cause no pains. The compound of the present invention was intraperitoneally administered to rats as a test drug to conduct a von Frey test.
Male SD rats of six weeks age (six rats per group) were used as experimental animals, and paclitaxel (2 mg/kg) was intraperitoneally administered every other day for four times in total to prepare rats with paclitaxel-induced peripheral nerve disorder. During the period of 18 to 25 days or during the period of 20 to 27 days after the initiation of paclitaxel administration, the test drug was intraperitoneally administered in a single dose of […], and the following von Frey test was conducted.
(§1) The rats of the above (1) were placed in a transparent acrylic cage with a wire-meshed floor and habituated for about three minutes, and the 50% reaction threshold values to the mechanical stimulus of right hind limb were measured before administration of the test drug and after 1 and 5 hours from the initiation of the administration.
(§2) The measurement was conducted using von Frey filaments (manufactured by North Coast Medical Inc.) in accordance with the methods of Chaplan, et al. (Journal of Neuroscience Methods, 53(1), 55-63, 1994) and Dixon, et al. (Annual Review of Pharmacology and Toxicology, 20, 441-462, 1980). […] The case where the rat escaped at the instance of removing the filament was also called positive. When the positive reaction was found, stimulus was applied similarly with a filament of one rank weaker, and in the absence of the reaction, stimulus was similarly applied with a filament of one rank stronger, and a point where the reaction changed from negative to positive or from positive to negative was called the first two reactions. Subsequently, stimuli were applied for continuously four times by the same up-down method. A 50% reaction threshold value to the mechanical stimulus was measured using the reaction to the six stimuli in total and then (mean value)±(standard error) for each group was calculated. Incidentally, when stimulus reached to a load of 15.0 g without positive reaction, or when positive reaction continued to a load of 0.4 g, 15.0 g or 0.25 g was adopted as each of 50% reaction threshold values. With regard to the higher 50% reaction threshold value between the 50% threshold values after 1 hour and 5 hours from administration of a test drug, a recovery rate (%) of the 50% reaction threshold value was calculated by the following expression in which 15 was taken as a normal threshold value.
Recovery rate (%) of 50% reaction threshold value=[(50% reaction threshold value after 1 hour or 5 hours from administration of test drug)−(50% reaction threshold value before administration of test drug)]/[(Normal threshold value)−(50% reaction threshold value before administration of test drug)]×100

MIA-induced OA rats = assay: Analgesic action against osteoarthritis model rats (MIA-induced OA), von Frey test; assay type: in vivo, rat; details: intraperitoneally, single dose of 500 μg/kg, hyperalgesia of OA induced by MIA
Procedure: as §1
as §2, with “value. […]” for “value.”
A 50% reaction threshold value to the mechanical stimulus of male Wistar rats of six weeks age was measured (the measurement method will be mentioned later), and a normal control group was selected. […]
With regard to the male Wistar rats of six weeks age used as experimental animals except the normal control group, their 50% reaction threshold values to the mechanical stimulus (the measuring method will be mentioned later) and body weights were measured after 24 days from the administration of MIA mentioned in (1) and then 3 groups, i.e. a normal control group, an onset control group, and a test drug-administered group, six rats per group, were organized. […]

MAP kinase (ERK 1/2) = assay: Activation (phosphorylation) of MAP kinase in cultured cerebral cortex nerve cells, Western immunoblotting; assay type: cell-based; details: 0.5 h; fetal rat cerebral cortex nerve cells; compound 250 μg/ml in 0.1% DMSO; 30 minutes; relative to control = 1.00; read-out: Ratio of pMAPK to MAPK
Procedure: With regard to the compounds of the present invention, the activation of MAP kinase (ERK 1/2) was measured in accordance with a Western immunoblotting in the following manner.
Nerve cells were dispersed from cerebral cortex of a fetal rat of 17 days age, and the nerve cells were cultured for one day in a Dulbecco's modified Eagle's medium (DMEM) containing 5% fetal bovine serum. The culture medium was exchanged with a serum-free medium (B27 supplemented Neurobasal; Invitrogen), and the nerve cells were cultured at the density of 20,000 to 40,000 cells/cm^2 in a polyornithine-coated culture dish.
After three days, the compound of the present invention was added, and the culture was continued for 30 minutes. Thereafter, the cells were recovered on ice using a solution containing a phosphatase inhibitor where Tris-HCl buffer was used as a base. The protein concentration of the resulting cell extract was quantified with a BCA Protein Assay Kit (Takara Bio Co., Ltd.), and a certain amount of the protein (3 μg for the measurement of MAP kinase and 5 μg for the measurement of phosphorylated MAP kinase) was subjected to polyacrylamide gel electrophoresis. The protein was transferred from the electrophoresed gel to a PVDF membrane, and Western immunoblotting was carried out using each of an anti-MAP kinase antibody (Cell Signaling Technology) and an anti-phosphorylated MAP kinase antibody (Cell Signaling Technology) of the primary antibody.
Subsequently, the reaction with an alkaline phosphatase-labeled anti-rabbit IgG antibody (Promega) of the secondary antibody was carried out, and the enzymatic activity was allowed to develop color, to measure MAP kinase (MAPK) and the phosphorylated MAP kinase (pMAPK).
Incidentally, each of the compounds of the present invention was dissolved in 0.1% DMSO to adjust its concentration to 250 μg/ml. As to the control, 0.1% DMSO was added.
The intensity of the concentration of the bands of eletrophoresed the gel was calculated and quantified using Image J (K. K. Bioarts). The numerical values for the MAPK when using the compounds of the present invention were each divided by the numerical value for the MAPK of the control, and the numerical values for the pMAPK when using the compounds of the present invention were divided by the numerical value for the pMAPK of the control, whereby a ratio of the MAPK when using each of the compounds of the present invention to the control, and a ratio of the pMAPK when using each of the compounds of the present invention to the control were obtained. Subsequently, the ratio of the pMAPK to the control obtained was divided by the ratio of the MAPK to the control to obtain a ratio of the pMAPK to the MAPK.

| melting point [°C] | SMILES | change in vivo at 0.3 mg/kg [1] [%] | Recovery Rate of 50% Reaction Threshold (MIA-induced OA rats) [%] | fold induction at 250 µg/mL (MAP kinase (ERK 1/2)) |
| --- | --- | --- | --- | --- |
|  | CCCCCCC/C=C/C(=O)N1CCN(c2ccccc2)CC1 [Compound 25, 1-((E)-2-Decenoyl)-4-phenylpiperazine] | 55.3 | 18.9 |  |
| 53 to 55 | CCCCCCC/C=C/C(=O)N1CCN(CCC(=O)O)CC1 [Compound 21, 3-[4-((E)-2-decenoyl)piperazin-1-yl]propionic acid] | 34.8 |  | 1.54 |
|  | CCCCCCC/C=C/C(=O)N1CCCC1 [Compound 1, 1-((E)-2-Decenoyl)pyrrolidine] | 58.2 | 24.2 |  |
| 33 to 34 | CCCCCCC/C=C/C(=O)N1CCN(C2CCCCC2)CC1 [Compound 23, 4-Cyclohexyl-1-((E)-2-decenoyl)piperazine] | 33 |  | 1.3 |
|  | CCCCCCC/C=C/C(=O)N1CCN(CCN(C)C)CC1 [Compound 22, 1-((E)-2-Decenoyl)-4-[2-(dimethylamino)ethyl]piperazine] | 29.7 | 13.2 |  |
|  | CCCCCCC/C=C/C(=O)N1CCC(N(CC)CC)CC1 [Compound 13, 1-((E)-2-Decenoyl)-4-diethylaminopiperidine] | 23.2 |  | 1.63 |
|  | CCCCCCC/C=C/C(=O)N1CCN(C(C)C)CC1 [Compound 20, 1-((E)-2-Decenoyl)-4-isopropylpiperazine] | 26.9 |  | 1.27 |
| 33 to 34 | CCCCCCC/C=C/C(=O)N1CCN(CCc2ccccc2)CC1 [Compound 27, 1-((E)-2-Decenoyl)-4-(2-phenylethyl)piperazine] | 69.1 |  | 1.44 |
|  | CCCCCCC/C=C/C(=O)N1CCCCC1 [Compound 5, 1-((E)-2-Decenoyl)piperidine] | 41.6 | 35.8 |  |
| 62 to 63 | CCCCCCC/C=C/C(=O)N1CCN(Cc2ccccc2)CC1 [Compound 26, 4-Benzyl-1-((E)-2-decenoyl)piperazine] | 24.1 |  | 1.48 |
|  | CCCCCCC/C=C/C(=O)N1CCSC1 [Compound 4, 3-((E)-2-Decenoyl)thiazolidine] | 43.7 |  | 1.47 |
